This is an account of results in US12065468B2, “Heme-binding small peptide” (priority 2021, dated 2024).

By Kd is commonly meant a measure of binding affinity in units of concentration. A higher Kd goes with a looser complex.

Entries after “also recorded” stand apart in the source; their conditions may differ.

Assay [1] in a line: Biolayer interferometry of heme binding. The text has this:
Biotinylation of heme: Hemin was biotinylated using the method exactly as described previouslyl^16. Biotin hydrazide, DCC was purchased from Sigma. COSMOSIL™ 5C18-AR-II Packed Column, 4.6 mm I.D.×150 mm from Nacalai USA (San Diego, CA) was used to separate the products. LC-MS was used to verify the correct molecular weight (969.4 Da) of biotinylated heme (in which only one of the two propionate groups of protoheme was conjugated with biotin hydrazide) as described above.
Biolayer interferometry: Biolayer interferometry was carried out using a ForteBio Octet RED96™ biolayer interferometer, following the manufacturer's instructions for a standard kinetic assay. Streptavidin-coated biosensor tips were incubated in 200 μl assay buffer (Water [pH 7.4]), each for 60s. Then biotinylated heme (or NCR247 in the case of Fe(III) PPIX dimethyl ester chloride) was loaded onto each biosensor tip at the defined concentration until the binding signal reached a value of >1.4. Biosensor tip loading was followed by incubation in assay buffer for 60s. Association between the ligand-heme and the analyte-various variants of NCR247 (Increasing concentrations in assay buffer) was observed over a time frame of ˜116 s, in assay buffer. To stop binding kinetics for dissociation, the biosensor tips were placed back into assay buffer not containing any analyte, for 120 s. Curves were fit with Global fit analysis and Data analysis and KD calculation was performed using Fortebio™ data analyses 8.2 software as described previously^89.
(In general: Biolayer interferometry detects binding as a change in optical thickness at a sensor tip.)

Assay [2] in a line: UV-Vis spectroscopy / colour change on heme addition. It is filed as binding. The procedure: Heme preparation: Hemin solutions were always prepared in 0.1 M NaOH and used within 30 min of preparation. 1:1000 and 1:500 dilution of the stock solution was made and stock concentration was measured by pyridine hemochrome assay as described previously^85 by measuring the absorption at 557 nm using the extinction coefficient of pyridine hemochromogen (34.7 mM^−1 cm^−1).
UV-VIS spectroscopy: All absorption spectra were collected in a Tecan Spark™ 10 M microplate reader using black polystyrene 96-well plates. Absorbance from 300 nm to 700 nm was recorded with a 5 nm interval after an initial shaking at 100 rpm for 15 secs. Heme binding to synthesized peptide: Water (pH 7.4) was used in all reactions and was first added to the wells. Peptides solubilized in water were added and then heme solubilized in 0.1 M NaOH was added, mixed thoroughly and measurements were taken immediately. Peptide and heme volume were kept to a maximum of 5 ul in volume. For all the absorption curves (except Extended FIG. 3a) […] was used. The same was also repeated with 0.1 M Tris buffer (pH 7.4) as a base buffer instead of water.

Assay [3] deals with Z-ring (FtsZ-GFP). Put plainly: Z-ring formation, FtsZ-GFP fluorescent microscopy. To be noted: 2 μM, 200 mins; listed as L-NCR247. It is filed as cell-based, Sinorhizobium meliloti. The procedure: FIG. 15. […] Visualization of Z-ring formation during cell division by FtsZ-GFP labeled cells using fluorescent microscopy. Data indicates percentage of cells displaying fully formed Z-rings when synchronized and treated with upon treatment with 2 μM of L or D-NCR247 for 200 mins. […] Data are presented as average of three biological replicates ±s.d.
Since NCR247 treatment leads to gene expression change in several genes of the CtrA regulon, we investigated the CtrA regulon and the cell division inhibition role of NCR247. […] In addition, this phenotype is retained in a peptide transporter bacA mutant indicating cell division inhibition happens due to protein-peptide interaction outside the cytoplasm.

Consider RNGCIVDPRCPYQQCRRPLYCRRR [NCR247], for which the Kd in assay [1] (biotinylated heme as ligand, peptide as analyte) was about 1 nM. For the same sequence, the “heme binding affinity, in words” value in assay [1] (compared with NCR247 (L-enantiomer)) is “binds heme with nanomolar affinity”. For the same sequence, the “heme binding (absorption peaks 366 nm, ~450 nm; colour change)” value in assay [2] (heme added to peptide, ferric heme) is “bound within seconds; also recorded: binds heme”. Further, in assay [2] (sodium dithionite-reduced Fe(II) heme), the “binding of ferrous heme” value is reported as “binds sodium dithionite-reduced Fe(II) ferrous heme”. In assay [3], the “formation of Z-ring” value is on record as “results in inhibition of assembly of the Z-ring; also recorded: greatly reduced”.
